Data set [1] addresses T1, porcine pancreatic α-amylase (Sus scrofa, UniProt P00690).
T1 sequence (P00690 16-511): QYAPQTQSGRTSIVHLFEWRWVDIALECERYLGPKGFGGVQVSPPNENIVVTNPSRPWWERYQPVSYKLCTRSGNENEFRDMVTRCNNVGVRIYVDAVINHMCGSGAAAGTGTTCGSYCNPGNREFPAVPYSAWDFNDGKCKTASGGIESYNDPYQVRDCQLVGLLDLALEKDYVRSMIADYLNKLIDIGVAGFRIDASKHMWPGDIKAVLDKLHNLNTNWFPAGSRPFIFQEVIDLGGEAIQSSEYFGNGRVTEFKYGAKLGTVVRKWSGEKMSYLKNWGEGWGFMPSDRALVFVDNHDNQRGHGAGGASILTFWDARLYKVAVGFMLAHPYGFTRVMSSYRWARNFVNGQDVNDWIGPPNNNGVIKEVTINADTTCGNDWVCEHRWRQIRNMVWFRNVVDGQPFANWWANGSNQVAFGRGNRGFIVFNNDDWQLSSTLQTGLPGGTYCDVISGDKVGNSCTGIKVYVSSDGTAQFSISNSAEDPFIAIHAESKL
Briefly: Porcine pancreatic α-amylase inhibitory activity (Bernfeld assay). The settings on record: IU = amount giving 50% inhibition of 2 units porcine pancreatic α-amylase, pH 6.9, 37° C. In kind it is biochemical. On the procedure:
2 units* of porcine pancreatic α-amylase in 0.1 ml of 6.4 mM ammonium sulfate solution are added to 0.6 ml of 20 mM phosphate buffer (pH 6.9) containing 10 mM sodium chloride and different amounts of Trestatin. The mixture, after equilibration at 37° C. for 5 min. followed by the addition of 0.5 ml of 4% soluble starch solution, is incubated for 5 min. at 37° C. The reaction is terminated by the addition of 2 ml of dinitrosalicylic acid reagent prepared according to the method of P. Bernfeld. The mixture is heated on a boiling water bath for 5 min. and then diluted with 10 ml of water. Absorbance (A1) of the resulting colored solution is measured at 540 nm, and the inhibition of α-amylase activity can be calculated from the following equation: [formula] A0; absorbance without enzyme A2; absorbance without Trestatin
*1 unit of the α-amylase is the amount of enzyme which catalyzes under the above conditions without Trestatin the formation of reducing sugars equivalent to 1 μmol of maltose.
Each of said inhibitory activities was determined by the method mentioned above.

Data set [2] relates to hyperglycemia (hyperinsulinemia) following an oral load of native starch. Briefly: Hyperglycemia (hyperinsulinemia) following an oral load of native starch. In kind it is in vivo. As to conditions: 20 min. after wheat starch.
Procedure: (§4) [Plasma Glucose and insulin 20 min. after carbohydrate ± Trestatin (1.
g wheat starch/kg or 3.2 g sucrose/kg)]
The next data set relates to Salmonella paratyphi B. As to conditions: agar-dilution.
A further data set has as its system Candida albicans Yu1200. Briefly: Antimicrobial spectrum, agar-dilution method. In kind it is cell-based.
Another data set relates to Citrobacter. Briefly: Antimicrobial spectrum, agar-dilution method. In kind it is cell-based.
A further data set can be described thus: Titration (in water). In kind it is physicochemical.
A further data set deals with E. coli NIHJ. In words: Antimicrobial spectrum, agar-dilution method. In kind it is cell-based.
The test system of another data set is E. coli NIHJ STf. In words: Antimicrobial spectrum, agar-dilution method. In kind it is cell-based.
Data set [3] relates to Staphylococcus aureus Smith. In words: Antimicrobial spectrum, agar-dilution method. In kind it is cell-based.
For data set [4], the system named is Staphylococcus aureus MS9261. Briefly: Antimicrobial spectrum, agar-dilution method. In kind it is cell-based.
In a further data set the test system is Sarcina lutea ATCC 9341. In words: Antimicrobial spectrum, agar-dilution method. In kind it is cell-based. As to conditions: Sarcina lutea ATCC 9341, agar-dilution.
The test system of data set [5] is Staphylococcus aureus FDA209P. Briefly: Antimicrobial spectrum, agar-dilution method. In kind it is cell-based.
A further data set relates to E. coli K-12 ML1630. Briefly: Antimicrobial spectrum, agar-dilution method. In kind it is cell-based. As to conditions: E. coli K-12 ML1630, agar-dilution.
In data set [6] the test system is Bordetella bronchiseptica Aichi 202. Briefly: Antimicrobial spectrum, agar-dilution method. In kind it is cell-based. The settings on record: Bordetella bronchiseptica Aichi 202, agar-dilution.
Data set [7] has as its system Pseudomonas aeruginosa A3. Briefly: Antimicrobial spectrum, agar-dilution method. In kind it is cell-based.
A further data set concerns E. coli CF17. In words: Antimicrobial spectrum, agar-dilution method. In kind it is cell-based.
For data set [8], the system named is Salmonella typhimurium IFO12529. Briefly: Antimicrobial spectrum, agar-dilution method. In kind it is cell-based.
The test system of data set [9] is hyperglycemia following an oral load of sucrose. In words: Hyperglycemia following an oral load of sucrose. In kind it is in vivo. The settings on record: dose/kg 30.0 mg; 20 min. after 3.2 g sucrose/kg.
Procedure: as §4
g wheat starch/kg or 3.2 g sucrose/kg)]
For data set [10], the system named is Serratia marcescens IFO12648. In words: Antimicrobial spectrum, agar-dilution method. In kind it is cell-based.
Another data set deals with E. coli CF41. In words: Antimicrobial spectrum, agar-dilution method. In kind it is cell-based.
Data set [11] has as its system hyperglycemia induced by cooked rice starch. Briefly: Inhibition of hyperglycemia induced by cooked rice starch, mice. As to conditions: p.o., dose causing after 20 minutes a 20 percent decrease of hyperglycemia, 2 g/kg cooked rice starch. In kind it is in vivo. On the procedure:
(§1) **ED20 is defined as the dose causing after 20 minutes a 20 percent
(§2) decrease of hyperglycemia induced by oral administration of 2 g/kg body
(§3) weight cooked rice starch.

In another data set the test system is Shigella flexneri. Briefly: Antimicrobial spectrum, agar-dilution method. In kind it is cell-based.
The subject of data set [12] is hyperglycemia induced by cooked rice starch. In words: Inhibition of hyperglycemia induced by cooked rice starch, rats. In kind it is in vivo. The settings on record: p.o., dose causing after 20 minutes a 20 percent decrease of hyperglycemia, 2 g/kg cooked rice starch. On the procedure: as §1, §2, §3
The test system of data set [13] is Pseudomonas aeruginosa IFO12689. Briefly: Antimicrobial spectrum, agar-dilution method. In kind it is cell-based.
The subject of data set [14] is Bacillus subtilis PCI 219. Briefly: Antimicrobial spectrum, agar-dilution method. In kind it is cell-based. As to conditions: Bacillus subtilis PCI 219, agar-dilution.
Another data set concerns Proteus rettgeri. Briefly: Antimicrobial spectrum, agar-dilution method. In kind it is cell-based.
The subject of data set [15] is Proteus vulgaris OX19 ATCC6898. Briefly: Antimicrobial spectrum, agar-dilution method. In kind it is cell-based.
Another data set has as its system E. coli NIHJ SMf. Briefly: Antimicrobial spectrum, agar-dilution method. In kind it is cell-based.
Data set [16] deals with Pseudomonas aeruginosa P2. Briefly: Antimicrobial spectrum, agar-dilution method. In kind it is cell-based.
Another data set can be described thus: Solubility in solvents. In kind it is physicochemical. From the text: (h) Solubility in solvents:
The test system of another data set is rats. In words: Acute toxicity, oral, rats. The settings on record: 500 mg/kg administered to rats orally (65-700 times the effective dosage).
Data set [17] concerns Mycobacterium smegmatis ATCC607. In words: Antimicrobial spectrum, agar-dilution method. In kind it is cell-based.
The test system of data set [18] is Staphylococcus aureus MS3937. Briefly: Antimicrobial spectrum, agar-dilution method. In kind it is cell-based.
Data set [19] deals with Klebsiella pneumoniae PCI602. In words: Antimicrobial spectrum, agar-dilution method. In kind it is cell-based.

Data on 5 molecules can be found in patent US4273765A, “Amino sugar derivatives containing trehalose” (Hoffmann-La Roche Inc., priority 1978, dated 1981).

Bounds are passed on as bounds.

For “Trestatin A dihydrochloride [Trestatin A . HCl]”, the Inhibitory activities in data set [1] is recorded as 6.3 × 10^7 IU/g.

As for “Trestatin B monohydrochloride [Trestatin B . HCl]”, the Inhibitory activities in data set [1] is listed as 1.3 × 10^6 IU/g.

In the case of “Trestatin C trihydrochloride [Trestatin C . HCl]”, the Inhibitory activities in data set [1] is 4.5 × 10^7 IU/g.

`C[C@H]1O[C@H](O[C@@H]2[C@H](O)[C@H](O)[C@@H](O[C@@H]3[C@H](O)[C@@H](O)[C@@H](O[C@@H]4[C@H](O)[C@H](O)[C@@H](O[C@H]5O[C@@H](CO)[C@H](O)[C@H](O)[C@H]5O)O[C@@H]4CO)O[C@@H]3CO)O[C@H]2CO)[C@H](O)[C@@H](O)[C@@H]1N[C@H]1C=C(CO)[C@@H](O[C@H]2O[C@H](CO)[C@H](O[C@H]3O[C@H](C)[C@@H](N[C@H]4C=C(CO)[C@@H](O)[C@H](O)[C@H]4O)[C@H](O)[C@H]3O)[C@H](O)[C@H]2O)[C@H](O)[C@H]1O` (stereo in doubt) [Trestatin A]: the entries for the “Plasma glucose, starch - load” value in data set [2] (dose/kg 0.3 mg), in data set [2] (dose/kg 1.0 mg) and in data set [2] (dose/kg 3.0 mg) were 68% of carbohydrate primed controls, 56% of carbohydrate primed controls and 55% of carbohydrate primed controls, respectively. Further, the “Plasma insulin, starch - load” value in data set [2] (dose/kg 0.3 mg) is 66% of carbohydrate primed controls; in [2] (dose/kg 1.0 mg), 42% of carbohydrate primed controls; in data set [2] (dose/kg 3.0 mg), 42% of carbohydrate primed controls. The Antimicrobial spectrum (with Salmonella paratyphi B; in the data set with Candida albicans Yu1200; in the data set on Citrobacter; in the data set with E. coli NIHJ; with E. coli NIHJ STf; in data set [3]) was more than 100 µg/mL each time. The Antimicrobial spectrum (in data set [4]; in the data set with Sarcina lutea ATCC 9341; in [5]; in the data set with E. coli K-12 ML1630; in [6]; in [7]) was more than 100 µg/mL in each case. For the same molecule, the Antimicrobial spectrum (in the data set with E. coli CF17; in [8]; in data set [10]; in the data set on E. coli CF41; in the data set with Shigella flexneri; in [13]) was more than 100 µg/mL in each case. The Antimicrobial spectrum (in data set [14]; with Proteus rettgeri; in data set [15]; with E. coli NIHJ SMf; in [16]; in [17]) was more than 100 µg/mL throughout. In addition, the Antimicrobial spectrum in data set [18] and in [19] was more than 100 µg/mL each time. Further, the “pKa'” value in “Titration (in water)” came to 5.0. For the same molecule, the Inhibitory activities in [1] is recorded as 7.1 × 10^7 IU/g. In addition, the “Plasma glucose, sucrose - load” value in data set [9] is 84% of carbohydrate primed controls. For the same molecule, the “ED20, inhibition of hyperglycemia induced by cooked rice starch” value in data set [11] is 1.1 mg/kg; in data set [12], 1.0 mg/kg. Further, the Solubility in acetone result in the data set “Solubility in solvents” is reported as “slightly soluble”. For the same molecule, the Solubility in chloroform result in “Solubility in solvents” was “insoluble”. Further, the Solubility in dimethylsulfoxide entry in “Solubility in solvents” was “soluble”. Moreover, the Solubility in ethanol entry in “Solubility in solvents” is listed as “slightly soluble”. Further, in “Solubility in solvents”, the “Solubility in ethyl acetate” value is “insoluble”. Further, in “Solubility in solvents”, the Solubility in water result is “easily soluble”. For the same molecule, the Acute toxicity result in the data set with rats is “not observed”.

With `C[C@H]1O[C@H](O[C@@H]2[C@H](O)[C@@H](O)[C@@H](O[C@@H]3[C@H](O)[C@@H](O)[C@@H](O[C@@H]4[C@H](O)[C@H](O)[C@@H](O[C@H]5O[C@H](CO)[C@H](O)[C@H](O)[C@H]5O)O[C@@H]4CO)O[C@@H]3CO)O[C@H]2CO)[C@@H](O)[C@@H](O)[C@@H]1N[C@@H]1C=C(CO)[C@@H](O)[C@@H](O)[C@@H]1O` (stereo in doubt) [Trestatin B], the Antimicrobial spectrum (with Salmonella paratyphi B; in the data set on Candida albicans Yu1200; in the data set on Citrobacter; in the data set with E. coli NIHJ; in the data set with E. coli NIHJ STf; in data set [3]) was more than 100 µg/mL throughout. Moreover, the Antimicrobial spectrum (in data set [4]; in the data set on Sarcina lutea ATCC 9341; in [5]; in the data set with E. coli K-12 ML1630; in data set [6]; in data set [7]) was more than 100 µg/mL each time. Further, the Antimicrobial spectrum (with E. coli CF17; in [8]; in data set [10]; in the data set with E. coli CF41; in the data set with Shigella flexneri; in data set [13]) was more than 100 µg/mL each time. Further, the Antimicrobial spectrum (in data set [14]; in the data set with Proteus rettgeri; in [15]; in the data set on E. coli NIHJ SMf; in data set [16]; in data set [17]) was more than 100 µg/mL throughout. In addition, the Antimicrobial spectrum in data set [18] and in data set [19] was more than 100 µg/mL throughout. Moreover, the “pKa'” value in “Titration (in water)” came out at 5.0. For the same molecule, the Inhibitory activities in data set [1] is on record as 1.5 × 10^6 IU/g. Moreover, the “ED20, inhibition of hyperglycemia induced by cooked rice starch” value in [11] stood at 3.2 mg/kg; in [12], 7.7 mg/kg. The Solubility in acetone result in “Solubility in solvents” is “slightly soluble”. For the same molecule, in “Solubility in solvents”, the Solubility in chloroform result was “insoluble”. The Solubility in dimethylsulfoxide entry in “Solubility in solvents” is on record as “soluble”. The Solubility in ethanol result in the data set “Solubility in solvents” is “slightly soluble”. In addition, in “Solubility in solvents”, the “Solubility in ethyl acetate” value is reported as “insoluble”. In “Solubility in solvents”, the Solubility in water entry is “easily soluble”. Moreover, the Acute toxicity entry with rats was “not observed”.
